Test results: patent publication US20110092558A1, “NOVEL MICROBIOCIDES” (SYNGENTA CROP PROTECTION, INC., priority 2008, published 2011)

Experiments:
[1] = system: Erysiphe graminis f.sp. Tritici; test: Action against Erysiphe graminis f.sp. tritici (wheat powdery mildew), wheat leaf segments, preventive; format: in vivo; conditions: Blumeria graminis, foliar, 168 h; wheat leaf segments sprayed with 0.02% active ingredient; assessed 7 days after inoculation; read-out: preventive fungicidal activity (inhibition)
Description: (§1) Action Against Erysiphe graminis f.sp. Tritici (Wheat Powdery Mildew) Wheat leaf segments are placed on agar in multiwell plates (24-well format) and sprayed with test solutions (0.02% active ingredient). After drying, the leaf disks are inoculated with a spore suspension of the fungus. After appropriate incubation the activity of a compound is assessed 7 days after inoculation as preventive fungicidal activity. Compounds 1.001, 1.004, 1.052, 1.069, 1.134, and 1.182 show good activity in this test (at least 50% inhibition).

Pyrenophora teres = test: Action against Pyrenophora teres (net blotch) on barley leaf segments, preventive; format: in vivo; conditions: foliar, 96 h, barley leaf segments sprayed with 0.02% active ingredient, assessed 4 days after inoculation, read-out: preventive fungicidal activity (inhibition)
Description: as §1, with “Pyrenophora teres (Net Blotch) on Barley Barley” for “Erysiphe graminis f.sp. Tritici (Wheat Powdery Mildew) Wheat”, “4” for “7”, “1.134, 1.171, 1.182” for “1.134,”, “1.197” for “1.182”

Botrytis cinerea = test: Action against Botrytis cinerea - fungal growth assay; format: cell-based; conditions: 0.02% active ingredient, PDB nutrient broth, 24° C., measured photometrically after 3-4 days
Description: (§2) Action Against Botrytis cinerea—Fungal Growth Assay Conidia of the fungus from cryogenic storage are directly mixed into nutrient broth (PDB potato dextrose broth). After placing a (DMSO) solution of the test compounds (0.02% active ingredient) into a microtiter plate (96-well format) the nutrient broth containing the fungal spores is added. The test plates are incubated at 24° C. and the inhibition of growth is measured photometrically after 3-4 days. The activity of a compound is expressed as fungal growth inhibition. Compounds 1.001, 1.004, 1.052, 1.134, 1.182 and 1.197 show good activity in this test (at least 50% inhibition).

Mycosphaerella arachidis = test: Action against Mycosphaerella arachidis (early leaf spot of groundnut) - fungal growth assay; format: cell-based; conditions: 0.02% active ingredient, PDB nutrient broth, 24° C., measured photometrically after 6-7 days
Description: as §2, with “Mycosphaerella arachidis (Early Leaf Spot of Groundnut Cercospora Arachidicola [Anamorph])—Fungal” for “Botrytis cinerea—Fungal”, “6-7” for “3-4”, “1.052, 1.069,” for “1.052,”, “1.134, 1.171,” for “1.134,”

Septoria tritici = test: Action against Septoria tritici - fungal growth assay; format: cell-based; conditions: Zymoseptoria tritici; 0.02% active ingredient; PDB nutrient broth, 24° C.; determined photometrically after 72 hrs
Description: as §2, with “Septoria tritici—Fungal” for “Botrytis cinerea—Fungal”, “determined” for “measured”, “72 hrs.” for “3-4 days.”, “1.052, 1.069,” for “1.052,”, “1.134, 1.171,” for “1.134,”

Monographella nivalis = test: Action against Monographella nivalis (snow mould) - fungal growth assay; format: cell-based; conditions: 0.02% active ingredient, PDB nutrient broth, 24° C., measured photometrically after 72 hrs
Description: as §2, with “Monographella nivalis (Anamorph: Fusarium nivale, Microdochium nivale; Snow Mould)—Fungal” for “Botrytis cinerea—Fungal”, “DMSO-solution” for “(DMSO) solution”, “72 hrs.” for “3-4 days. The activity of a compound is expressed as fungal growth inhibition.”, “1.052, 1.069,” for “1.052,”, “1.134, 1.171,” for “1.134,”

Puccinia recondita = test: Curative action against Puccinia recondita (brown rust) on wheat leaf segments; format: in vivo; conditions: foliar, wheat leaf segments sprayed with 0.02% active ingredient one day after inoculation, assessed 8 days after inoculation, read-out: curative fungicidal activity (inhibition)
Description: Curative Action Against Puccinia recondita (Brown Rust) on Wheat Wheat leaf segments are placed on agar in multiwell plates (24-well format) and inoculated with a spore suspension of the fungus. One day after inoculation the leaf segments are sprayed with test solutions (0.02% active ingredient). After appropriate incubation the activity of a compound is assessed 8 days after inoculation as curative fungicidal activity. Compounds 1.004 and 1.052 show good activity in this test (at least 50% inhibition).

Leptosphaeria nodorum = test: Action against Leptosphaeria nodorum (Septoria nodorum; glume blotch) on wheat leaf segments, preventive; format: in vivo; conditions: Parastagonospora nodorum, foliar, 96 h; wheat leaf segments sprayed with 0.02% active ingredient; assessed 4 days after inoculation; read-out: preventive fungicidal activity (inhibition)
Description: as §1, with “Leptosphaeria nodorum (Septoria nodorum; Glume Blotch) on Wheat” for “Erysiphe graminis f.sp. Tritici (Wheat Powdery Mildew)”, “4” for “7”, “1.004,” for “1.004, 1.052,”

Measured: inhibition at 0.02 % strength

CC(CCc1c(Cl)cc(Cl)cc1Cl)NC(=O)c1cn(C)nc1C(F)F (stereo not shown) [Compound 1.004, 3-difluoromethyl-1-methyl-1H-pyrazole-4-carboxylic acid [1-methyl-3-(2,4,6-trichloro-phenyl)-propyl]-amide]
≥ 50%: all assays above

CC(CCCc1c(Cl)cc(Cl)cc1Cl)NC(=O)c1cn(C)nc1C(F)F (stereo not shown) [Compound 1.069, 3-difluoromethyl-1-methyl-1H-pyrazole-4-carboxylic acid [1-methyl-4-(2,4,6-trichloro-phenyl)-butyl]-amide]
not listed: Botrytis cinerea | Puccinia recondita
≥ 50%: all other assays above

CC(COCc1c(Cl)cccc1Cl)NC(=O)c1cn(C)nc1C(F)F (stereo not shown) [Compound 1.197, 3-difluoromethyl-1-methyl-1H-pyrazole-4-carboxylic acid [2-(2,6-dichloro-benzyloxy)-1-methyl-ethyl]-amide]
≥ 50%: Pyrenophora teres | Botrytis cinerea | Mycosphaerella arachidis | Septoria tritici | Monographella nivalis
